Experimental data taken from patent publication US9980943B2, “Methods of treating muscular dystrophy” (BOARD OF REGENTS OF THE NEVADA SYSTEM OF HIGHER EDUCATION, …, priority 2013, dated 2018).
Where two headings read alike, the source gives them in different places.

Test system: α7 integrin (LacZ reporter in α7LacZ+/− myoblasts)
Assay: qHTS of the LOPAC library and MLSMR (online screen, α7LacZ+/− myoblasts)
Conditions: for activation at 0.307 µM / activation at 1.53 µM / activation at 7.66 µM / activation at 38.3 µM / Emax / EC50: Mus musculus, Myoblast; for activation at 0.307 µM: read-out: Activity at 0.307 uM [%] **; for activation at 1.53 µM: read-out: Activity at 1.530 uM [%] **; for activation at 7.66 µM: read-out: Activity at 7.660 uM [%] **; for activation at 38.3 µM: read-out: Activity at 38.30uM [%] **; for EC50: read-out: Fit LogAC50 (converted)
[1] = 48 h, read-out: Fit Infinite Activity [%]

Row | SMILES | activation at 0.307 µM (48 h) [%] | activation at 1.53 µM (48 h) [%] | activation at 7.66 µM (48 h) [%] | activation at 38.3 µM (48 h) [%] | Emax [1] [%] | EC50 [µM] | Emax (read-out: Max Response [%]) [%] | Score
1 | Cc1ccccc1C(=O)Nc1nnc(SC(C)C)s1 [Compound 196] | 0 | 0 | 20.6 | 65.1 | 66.6 | 10 | 65.1 | 
2 | CC(=O)c1cccc(NC(=O)C(=O)Nc2cccc3ccccc23)c1 [Compound 197] | 5.25 | 15.7 | 40.8 | 66.9 | 84.7 |  | 66.9 | 
3 | Cc1cc(C)nc(NC(=O)c2ccc(Cl)cc2Cl)n1 [Compound 198] | 2.39 | 0 | 17.6 | 79.1 | 79.2 | 10 | 79.1 | 
4 | CC(C)N(CCO)C(=O)CCc1nnc(CCCc2ccccc2)o1 [Compound 199] | 0 | 7.61 | 32.2 | 78.1 | 96.2 |  | 78.1 | 
5 | c1ccc(CN2CCCC3(CCCN(Cc4nc(CC5CC5)no4)C3)C2)cc1 (stereo not drawn) [Compound 200] | -40.9 | -35.8 | 1.57 | 46.2 | 56.6 |  | 46.2 | 
6 | Cn1c(=O)c2c(nc(Sc3ncnn3CC(=O)NC3CCCCC3)n2C)n(C)c1=O [Compound 201] | -21.5 | -17.1 | 8.09 | 69.8 | 74.9 |  | 69.8 | 
7 | NS(=O)(=O)c1ccc(NC(=O)Nc2ccc(Cl)cc2)cc1 [Compound 202] |  |  |  |  |  |  |  | 42
8 | CC1=C(C#N)C(=O)N(C)C(=O)/C1=C\NNc1ccc(F)cc1 [Compound 203] | -46 | -36.9 | 8.42 | 51.8 | 59.4 |  | 51.8 | 
9 | CCS(=O)(=O)N1CCN(c2ccc([N+](=O)[O-])c(NCC3CCCO3)c2)CC1 (stereo not drawn) [Compound 204] | 0.881 | 0.157 | 20.1 | 70.3 | 70.8 | 10 | 70.3 | 
10 | O=C(NC(=S)NCCC1=CCCCC1)c1ccc(Br)o1 [Compound 205] | -39.4 | -31.7 | 12.1 | 50.2 | 57.8 |  | 50.2 | 
11 | CCCC(=O)Nc1ccccc1NC(=O)c1ccc(OCC)cc1 [Compound 206] | 12.1 | 15.3 | 28.5 | 91.2 | 91.9 |  | 91.2 | 
12 | NS(=O)(=O)c1ccc(NC(=O)c2ccc(CNS(=O)(=O)c3cc(C(F)(F)F)ccc3Cl)cc2)cc1 [Compound 207] | 0.545 | 0 | 25.5 | 73.3 | 75.5 | 10 | 73.3 | 
13 | COc1ccc(CN2CCNC(=O)C2CC(=O)NCCc2c[nH]c3ccccc23)c(OC)c1 (stereo not drawn) [Compound 208] | -7.84 | -10.8 | 16.4 | 73.4 | 74.6 | 10 | 73.4 | 
14 | O=Cc1cn(Cc2ccc(F)cc2Cl)c2ccccc12 [Compound 209] | 13 | 10.6 | 18.6 | 139 | 142 |  | 139 | 
15 | Cc1ccc(-c2nc(C)sc2CC(=O)OCC(=O)Nc2c(F)cccc2F)cc1 [Compound 210] | 13.8 | 9.43 | 20.3 | 113 | 113 |  | 113 | 
16 | CNC(=O)/C(=C\c1cccc(Oc2ccccc2)c1)NC(=O)c1ccccc1 [Compound 211] | 0.23 | 11.6 | 43 | 87.9 | 110 |  | 87.9 | 
17 | O=S(=O)(NCC(c1ccco1)N1CCOCC1)c1ccc(Cl)cc1 (stereo not drawn) [Compound 212] | 11.1 | 7.37 | 15.9 | 128 | 129 |  | 128 | 
18 | C=CCc1c(C)nc(-c2ccccc2)nc1N/N=C/c1ccccc1 [Compound 213] | 0 | 6.49 | 41.1 | 90.1 | 109 |  | 90.1 | 
19 | CCc1ccc(Sc2cc(C(=O)NCCN3CCOCC3)c3ccccc3n2)cc1 [Compound 214] | 13.2 | 16.1 | 43.9 | 101 | 108 |  | 101 | 
